Values quoted from earlier work in patent US20250041489A1, “A Drug Coating Formulation for a Sirolimus Coated Balloon Catheter” (C. R. Bard, Inc., priority 2021, published 2025).

Details: compared to amorphous sirolimus

In the case of `CO[C@H]1C[C@@H]2CC[C@@H](C)[C@@](O)(O2)C(=O)C(=O)N2CCCC[C@H]2C(=O)O[C@H]([C@H](C)C[C@@H]2CC[C@@H](O)[C@H](OC)C2)CC(=O)[C@H](C)/C=C(\C)[C@@H](O)[C@@H](OC)C(=O)[C@H](C)C[C@H](C)/C=C/C=C/C=C/1C` [crystalline sirolimus, sirolimus], the “Half-life of sirolimus on the surface of a balloon” value is given as “four weeks”.
